Assay results as given in patent US20230091047A1 (priority 2019, published 2023).
Like-named read-outs stand apart in the source and are kept apart here.

Legend:
HepG2 cells = test: in vitro; assay type: cell-based; conditions: HepG2 or HepG2.117 cells, ATPlite, mean value, read-out: CC50 (μM, mean value)
How it was run: (§1)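 Luminescent ATP quantitation served as the viability endpoint following a 3- or 4-day incubation with test compounds.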

[1] = test system: HBV (HepG2.117 cell line, inducibly HBV producing); test: Anti-HBV activity: intracellular HBV DNA by real-time PCR in HepG2.117 cells after 3 days of treatment; assay type: cell-based, hepatitis B virus
How it was run: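 HepG2.117 cells (Tet-off, inducible HBV production) were induced to replicate HBV by doxycycline absence, then treated with serially diluted compound for 3 days. Activity was quantified as intracellular HBV DNA by real-time PCR using an HBV-specific primer set and probe.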

in vitro = assay type: cell-based; conditions: human, HepG2 or HepG2.117 cells, ATPlite, mean value
How it was run: as §1

[2] = 3-days incubation (not marked with *)
[3] = HepG2.117 cells, intracellular HBV DNA by real-time PCR, 3 days of treatment, mean value; read-out: EC50 (μM, mean value)
[4] = Hepatitis B virus, HepG2.117, 72 h, HepG2.117 cells, intracellular HBV DNA by real-time PCR, 3 days of treatment, mean value; read-out: EC50 (μM, mean value)
[5] = 3-days incubation (unmarked values)
[6] = HepG2.117 cells, 3 days of treatment, intracellular HBV DNA by real-time PCR; mean value; read-out: EC50 (μM, mean value)
[7] = Hepatitis B virus, HepG2.117, 72 h, HepG2.117 cells, 3 days of treatment, intracellular HBV DNA by real-time PCR; mean value; read-out: EC50 (μM, mean value)

CNC(=O)c1ccc(-n2c(N[C@@H](C)C3CC3)nc3c(c2=O)C[C@@H](C)N(C(=O)c2ccc(Cl)c(Cl)c2)C3)c(Cl)c1 (single isomer, unassigned) [Compound C387b] gave a CC50 (HepG2 cells; [2]) of 36.8 µM and an EC50 [1, 3] of 0.06 µM.

In the case of CC(C)Nc1nc2c(c(=O)n1-c1ccc(-c3ncc[nH]3)cc1Cl)C[C@@H](C)N(C(=O)c1ccc(Cl)c(Cl)c1)C2 [Compound C393], the CC50 (HepG2 cells; [2]) is reported as 24.1 µM and the EC50 [1, 4] is reported as 0.17 µM.

In the case of CNC(=O)c1ccc(-n2c(NC(C)C)nc3c(c2=O)C[C@@H](C)N(C(=O)c2ccc(Cl)c(Cl)c2)C3)c(OC)c1 (single isomer, unassigned) [Compound C314b], the CC50 (HepG2 cells; [5]) is reported as > 50 µM and the EC50 [1, 6] is reported as 0.22 µM.

In the case of CNC(=O)c1ccc(-n2c(NC(C)C)nc3c(c2=O)C[C@@H](C)N(C(=O)c2ccc(Cl)c(C(F)(F)F)c2)C3)c(C(F)F)c1 (single isomer, unassigned) [Compound C669b], the CC50 (HepG2 cells; [2]) is reported as > 50 µM and the EC50 [1, 3] is reported as 0.04 µM.

With CC(C)Nc1nc2c(c(=O)n1-c1ccc(S(C)(=O)=O)cc1)C[C@H](C)N(C(=O)c1ccc(Cl)c(Cl)c1)C2 [Compound C141, (6S)-7-(3,4-dichlorobenzoyl)-3-[4-(methanesulfonyl)phenyl]-6-methyl-2-[(propan-2-yl)amino]-5,6,7,8-tetrahydropyrido[3,4-d]pyrimidin-4(3H)-one] the CC50 (HepG2 cells; [5]) was > 50 µM.

With CC(C)Nc1nc2c(c(=O)n1-c1ccc(S(C)(=O)=O)cc1)C[C@@H](C)N(C(=O)c1ccc(Cl)c(Cl)c1)C2 [Compound C142, (6R)-7-(3,4-dichlorobenzoyl)-3-[4-(methanesulfonyl)phenyl]-6-methyl-2-[(propan-2-yl)amino]-5,6,7,8-tetrahydropyrido[3,4-d]pyrimidin-4(3H)-one] the CC50 (HepG2 cells; [5]) was > 50 µM and the EC50 [1, 6] was 0.12 µM.

In the case of CNC(=O)c1ccc(-n2c(N[C@@H](C)c3ccccc3)nc3c(c2=O)C[C@@H](C)N(C(=O)c2ccc(Cl)c(Cl)c2)C3)c(Cl)c1 (single isomer, unassigned) [Compound C386b], the CC50 (HepG2 cells; [2]) is reported as > 50 µM and the EC50 [1, 3] is reported as 0.1 µM.

With CNC(=O)c1ccc(-n2c(NCc3nc(-c4ccccc4)n[nH]3)nc3c(c2=O)C[C@@H](C)N(C(=O)c2ccc(Cl)c(Cl)c2)C3)cc1 [Compound C538] the CC50 (HepG2 cells; [2]) was > 50 µM and the EC50 [1, 3] was 20.6 µM.

With CNC(=O)c1ccc(-n2c(NC(C)C)nc3c(c2=O)C[C@@H](C)N(C(=O)c2ccc(Cl)c(C(F)(F)F)c2)C3)c(OC)c1 (single isomer, unassigned) [Compound C643a] the CC50 (HepG2 cells; [2]) was > 50 µM and the EC50 [1, 3] was 0.04 µM.

For COc1ccccc1-n1c(N2CCCC2)nc2c(c1=O)CCN(C(=O)c1ccc(Cl)c(Cl)c1)C2 [Compound C39, 7-(3,4-dichlorobenzoyl)-3-(2-methoxyphenyl)-2-(pyrrolidin-1-yl)-5,6,7,8-tetrahydropyrido[3,4-d]pyrimidin-4(3H)-one], the CC50 at 3 days (in vitro; [5]) was > 50 µM and the EC50 [1, 7] was 9.21 µM.

In the case of CNc1noc2cc(-n3c(NC(C)C)nc4c(c3=O)C[C@@H](C)N(C(=O)c3ccc(Cl)c(Cl)c3)C4)c(C)cc12 [Compound C447], the CC50 at 3 days (in vitro; [2]) is reported as > 50 µM and the EC50 [1, 3] is reported as 0.1 µM.

With CNC(=O)c1ccc(-n2c(NCc3cnnn3C)nc3c(c2=O)C[C@@H](C)N(C(=O)c2ccc(Cl)c(Cl)c2)C3)cc1 [Compound C557] the CC50 at 3 days (in vitro; [2]) was > 50 µM and the EC50 [1, 4] was > 25 µM.

In the case of CNC(=O)c1ccc(-n2c(NC(C)C)nc3c(c2=O)C[C@@H](C)N(C(=O)c2ccc4[nH]c(=O)n(C)c4c2)C3)cc1 [Compound C509], the CC50 at 3 days (in vitro; [2]) is reported as > 50 µM and the EC50 [1, 4] is reported as > 25 µM.

For COc1ccccc1-n1c(NCc2cccnc2)nc2c(c1=O)CCN(C(=O)c1ccc(Cl)c(Cl)c1)C2 [Compound C9, 7-(3,4-dichlorobenzoyl)-3-(2-methoxyphenyl)-2-{[(pyridin-3-yl)methyl]amino}-5,6,7,8-tetrahydropyrido[3,4-d]pyrimidin-4(3H)-one], the CC50 at 4 days (in vitro; 4-days incubation (values marked with *)) was > 50 µM and the EC50 [1, 7] was 11.6 µM.

With CNC(=O)c1ccc(-n2c(NC(C)C)nc3c(c2=O)C[C@@H](C)N(C(=O)c2cc(Br)c4nccn4c2)C3)cc1 [Compound C495] the CC50 at 3 days (in vitro; [2]) was > 50 µM and the EC50 [1, 4] was > 25 µM.
